Test [1] has as its system PR-1a/T7 polymerase x plastid T7/GUS plants (pPH110X6b x 4276P). The test is described as follows: GUS mRNA content of plants sprayed with BTH (Northern blot, ethidium bromide scan). Type of test: in vivo, Nicotiana tabacum. The source says:
(§1) The N. tabacum ‘Xanthi’ plastid transformant line 4276P described by McBride et al. ((1994) PNAS 91: 7301-7305) was pollinated by homozygous NT-110X6b5 plants containing the PR-1a/T7 RNA polymerase. 4276P differs from pC8 only with respect to (a) the promoter used to express the aadA selectable marker (which has the 16S ribosomal RNA gene promoter rather than the psbA gene promoter used in pC8), (b) the presence of a psbA gene 3′ untranslated region between the GUS gene and the T7 terminator, and (c) the absence of a lac operator and duplicated StuI restriction site sequence in the T7 promoter. F1 plants from this cross heterozygous for the PR-1a/T7 polymerase nuclear expression cassette and homoplastidic for the T7/GUS plastid expression cassette were germinated in soil. Upon reaching a height of 20 to 40 cm the plants were sprayed with either an inert wettable powder suspension or a formulation of the inducer compound BTH with wettable powder. Control untransformed N. tabacum ‘Xanthi’, NT-110X6b-5, and 4276P plants germinated in soil at the same time were sprayed in a similar manner. Plant material (one leaf from each of three independent plants of each genotype) was harvested just prior to spraying and at 8 hours and 1, 2, 3, 7, and 28 days following spraying, and flash frozen as described above.
(§2) Total RNA was extracted from frozen tissue of BTH and wettable powder-sprayed control and PR-1a/T7 polymerase×plastid T7/GUS plants, and Northern blot analysis on 5 μg RNA samples was carried out as described (Ward et al. (1991) The Plant Cell 3, 1085-1094) using as a probe a 500 bp radiolabelled 5′ fragment of the GUS gene. […] Example C12 Determination of GUS protein content of transgenic plants In order to determine the amount of GUS present in the tissues of transgenic plants, chemiluminescent (Amersham) Western blot analysis was performed according to the manufacturer's instructions and Harlow and Lane (1988) Antibodies: A laboratory manual, Cold Spring Harbor Laboratory, Cold Spring Harbor, using GUS antisera purchased from Molecular Probes and purified GUS protein standards (Sigma). Proteins from frozen, ground leaf material harvested as above were solubilized by extraction in 50 mM Tris pH 8.0, 1 mM EDTA, 1 mM PTT, 1 mM AEBSP, and 1 mM DTT and 5 to 25 μg protein run on each lane of 10% polyacrylamide gels. GUS protein accumulation in the plastid transformed plants is sustained over 7-28 days and beyond, and is extraordinarily high (much higher than peak GUS accumulation for nuclear PR-1a/GUS), exceeding 20% of total protein by 28 days.

Test [2] shares this test system. The test is described as follows: GUS activity in leaf extracts of plants sprayed with BTH (fluorometric MUG assay). Format: in vivo, Nicotiana tabacum.
Source text: as §1
Frozen leaf tissue was ground in a mortar with a pestle in the presence of liquid nitrogen to produce a fine powder. Leaf extracts were prepared in GUS extraction buffer (50 mM sodium phosphate pH7.0, 0.1% Triton-X 100, 0.1% sarkosyl, 10 mM β-mercaptoethanol) as described by Jefferson, R. A. et al. (1986), PNAS USA 83, 8447-8451. The reactions were carried out in the wells of opaque microtiter plates by mixing 10 ul of extract with 65 ul of GUS assay buffer (50 mM sodium phosphate pH 7.0, 10 mM EDTA, 0.1% Triton X-100, 10 mM β-mercaptoethanol) containing 4-methyl umbelliferyl glucuronide […] at a final concentration of 2 mM in a total volume of 75 ul. The plate was incubated at 37° C. for 30 minutes and the reaction was stopped by the addition of 225 ul of 0.2 M sodium carbonate. The concentration of fluorescent indicator released was determined by reading the plate on a Flow Labs Fluoroskan II ELISA plate reader. Duplicate fluorescence values for each sample were averaged, and background fluorescence (reaction without MUG) was subtracted to obtain the concentration of MU for each sample. The amount of protein in each extract was determined using the bicinchoninic acid technique (BCA, Pierce Biochemicals) according to the manufacturer's recommendations except that protein extracts were pretreated with iodoacetamide (Sigma) to eliminate background signal caused by the reductant (β-mercaptoethanol) present in the extraction buffer. The specific activity was determined for each sample and was expressed in pmoles MU/mg protein/minute. For each tissue sample assayed from a particular time point following BTH application, the specific activity of the BTH-induced sample was divided by the specific activity of the pre-BTH treatment control sample, thus yielding the induction of GUS expression. (See Table I)

For test [3], the system named is PR-1a/T7 polymerase x plastid T7/cellulase plants. The test is described as follows: E5 cellulase mRNA content of plants after BTH induction (Northern blot). Format: in vivo, Nicotiana tabacum. From the text: Homozygous NT-10× and NT-110N plants containing the PR-1a-T7 RNA Pol construct were used to pollinate homoplastidic Nt_pC8E5 and Nt_pC+E5 plastid transformant lines carrying the maternally inherited pC8E5 and pC+E5 cellulase constructs. The Nt_pC+E5×NT-110X or NT--110N, and Nt_pC8E5×NT-110X or NT110N F1 progeny (which were heterozygous for the PR-1/T7 polymerase nuclear expression cassette and homoplastidic for the T7/cellulase plastid expression cassette) were germinated on soil. Upon reaching a height of […], the plants were sprayed with the inducer compound BTH to elicit T7 Pol-regulated expression of the E5 cellulase gene that is localized to the plastids. […]
Total RNA was extracted from frozen tissue of BTH and wettable powder-sprayed control and PR-1a/7 polymerase×plastid T7/cellulase plants, and Northern blot analysis on 5 μg RNA samples was carried out as described (Ward et al. (1991) The Plant Cell 3, 1085-1094) using as a probe a radiolabelled DNA fragment containing the E5 cellulase coding sequence. Relative E5 cellulase mRNA accumulation at each time point was assessed by quantifying the radioactivity in bands hybridizing with the radiolabelled E5 cellulase probe in order to determine time courses of fold mRNA induction. […] Prior to induction, no cellulase mRNA is detected.

Test [4] has as its system nuclear PR-1a/GUS transformants. The test is described as follows: GUS protein accumulation in nuclear PR-1a/GUS transformants after induction (Western blot). Format: in vivo. The note with it: nuclear PR1a/GUS transformants. The procedure:
as §2
On the technique in general: In western blotting, separated proteins are transferred to a membrane and probed.

Test [5] deals with PR-1a/T7 polymerase x plastid T7/GUS plants. The test is described as follows: GUS protein content of plants after BTH induction (Western blot). Format: in vivo, Nicotiana tabacum. The note with it: plastid transformed plants.
Source text: as §1, with “above. […]” for “above.”

The structures appear in SMILES notation.

With `CSC(=O)c1cccc2nnsc12` [BTH, benzo(1,2,3)thiadiazole-7-carbothioic acid S-methyl ester], the “% Total RNA (GUS RNA)” value in test [1] (0.3 days after BTH spray) was less than 0.013%; in test [1] (1.0 days after BTH spray), 0.108%; in test [1] (2.0 days after BTH spray), 0.873%; in test [1] (3.0 days after BTH spray) it was 2.663%; in test [1] (7.0 days after BTH spray) it was 7.745%; in test [1] (28.0 days after BTH spray) it was 24.596%. The “peak level of chemically inducible GUS RNA in the plastid, of total ethidium-stainable RNA” value in test [1] (between 7 and 28 days after induction with BTH) came to 14%. In test [1] (plastid vs nuclear PR-1a/GUS transformants), the “peak GUS RNA relative to peak chemically inducible GUS mRNA accumulation for nuclear PR-1a/GUS transformants” value is reported as “over 1000 fold”. In addition, the “GUS activity (pmol MU/mg/min)” value in test [2] (0.3 days after BTH spray) was 434 pmol MU/mg/min; in test [2] (1.0 days after BTH spray) it was 14,516 pmol MU/mg/min; in test [2] (2.0 days after BTH spray) it was 230,031 pmol MU/mg/min; in test [2] (3.0 days after BTH spray), 456,486 pmol MU/mg/min; in test [2] (7.0 days after BTH spray), 2,424,725 pmol MU/mg/min; in test [2] (28.0 days after BTH spray) it was 1,922,466 pmol MU/mg/min. In addition, in test [3] (after induction), the “time of peak cellulase mRNA accumulation” value is 14 days. Also, the “E5 cellulase mRNA accumulation following induction” value in test [3] (plant material of example C6, none detected prior to induction) was “significant cellulase mRNA accumulation”. The “GUS protein accumulation by 28 days” value in test [4] (28 days) is given as “declines to the limits of detection”. Moreover, the “time of peak GUS protein accumulation” value in test [4] (from induction) is on record as “about 3 days”. The “GUS protein accumulation, of total protein” value in test [5] (by 28 days) is reported as “exceeding 20%”. For the same molecule, the “time of peak/sustained GUS protein accumulation” value in test [5] (from induction) lay within 7 to 28 days.

These data come from patent publication US7838732B2, “Transgenic plants expressing a cellulase” (Syngenta Participations AG, priority 1996, dated 2010).
